Reference: ChEMBL document CHEMBL1201862, “PubChem BioAssay data set” (2004)
Calls of active or inactive are those of the source.

Experiments:
[1] = target: T1, DNA repair protein RAD52 homolog (Homo sapiens, UniProt P43351); assay type: functional, biochemical
T1 sequence (P43351 whole entry): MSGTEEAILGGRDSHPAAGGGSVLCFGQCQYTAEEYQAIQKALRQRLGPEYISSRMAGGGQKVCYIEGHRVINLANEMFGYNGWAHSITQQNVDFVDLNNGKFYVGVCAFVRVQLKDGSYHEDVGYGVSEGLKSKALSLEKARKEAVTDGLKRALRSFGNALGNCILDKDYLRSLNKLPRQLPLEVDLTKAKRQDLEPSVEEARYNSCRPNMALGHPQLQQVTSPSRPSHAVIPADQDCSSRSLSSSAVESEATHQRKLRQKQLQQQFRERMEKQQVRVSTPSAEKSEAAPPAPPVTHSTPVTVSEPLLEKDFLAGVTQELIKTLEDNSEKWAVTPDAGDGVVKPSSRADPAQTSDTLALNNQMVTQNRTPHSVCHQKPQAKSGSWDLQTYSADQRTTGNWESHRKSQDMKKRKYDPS

[2] = target: DNA dC->dU-editing enzyme APOBEC-3G (Homo sapiens, UniProt Q9HC16); assay: Dose Response confirmation of small molecule APOBEC3G DNA Deaminase Inhibitors via a fluorescence-based single-stranded DNA deaminase assay. [Related pubchem assays (depositor defined):AID493012, AID493028]; assay type: functional
[3] = target: T2, Ubiquitin-conjugating enzyme E2 N (Homo sapiens, UniProt P61088); assay type: functional;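 note: Dose-response confirmation in a TR-FRET assay detecting UBC13-driven polyubiquitin chain formation, inhibition measured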
T2 sequence (P61088 whole entry): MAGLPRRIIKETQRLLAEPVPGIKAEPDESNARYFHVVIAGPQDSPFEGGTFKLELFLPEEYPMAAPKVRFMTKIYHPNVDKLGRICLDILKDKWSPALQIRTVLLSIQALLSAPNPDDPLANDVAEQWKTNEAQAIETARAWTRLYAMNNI

Leucine aminopeptidase = target: T3, Leucine aminopeptidase (Plasmodium falciparum 3D7, UniProt Q8IL11); assay: P. falciparum M17LAP inhibitors, primary screen, biochemical, fluorogenic H-Leu-NHMec substrate, 1536-well (AID 1619); assay type: functional
T3 sequence (Q8IL11 whole entry): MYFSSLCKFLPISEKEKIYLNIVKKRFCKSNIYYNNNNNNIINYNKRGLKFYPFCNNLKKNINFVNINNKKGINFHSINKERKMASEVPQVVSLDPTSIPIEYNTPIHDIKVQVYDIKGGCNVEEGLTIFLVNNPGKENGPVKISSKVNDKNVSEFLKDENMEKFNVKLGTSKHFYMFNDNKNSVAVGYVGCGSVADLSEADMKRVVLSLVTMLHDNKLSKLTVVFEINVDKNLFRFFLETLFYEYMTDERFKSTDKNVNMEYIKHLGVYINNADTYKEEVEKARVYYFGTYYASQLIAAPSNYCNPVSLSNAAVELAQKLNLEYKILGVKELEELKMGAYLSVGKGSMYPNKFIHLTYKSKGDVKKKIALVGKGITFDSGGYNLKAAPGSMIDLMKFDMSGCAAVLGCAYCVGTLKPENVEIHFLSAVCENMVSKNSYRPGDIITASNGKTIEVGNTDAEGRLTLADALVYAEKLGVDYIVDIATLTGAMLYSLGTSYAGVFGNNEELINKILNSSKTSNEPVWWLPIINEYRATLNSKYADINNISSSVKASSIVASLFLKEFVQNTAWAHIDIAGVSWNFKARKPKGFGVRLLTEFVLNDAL

[4] = blockers of HIV-1 envelope-mediated cell-cell fusion – cherry-pick, dose response (AID 652057); assay type: functional, cell-based
[5] = blockers of HIV-1 ZM109 envelope-driven cell-cell fusion – HeLa effector, CEM target cells, luciferase, cherry-pick, dose response (AID 652058); assay type: functional, cell-based;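 note: luciferase signal from HIV-1 Env mediated cell-cell fusion of effector and target cells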
[6] = off-target signal loss in HeLa-CEM21 co-culture – HeLa F-luc CTL cells, cherry-picked, counter-screen for HIV-1 Env fusion inhibitor project, dose response (AID 652040); assay type: functional, cell-based;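 note: potency for signal decrease marking cytotoxic or nonspecific inhibition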
[7] = HIV-1 AD8 envelope cell-cell fusion blockers – cherry-pick, dose response (AID 652062); assay type: functional, cell-based;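 note: luciferase signal from cell-cell fusion driven by HIV-1 clade B AD8 Env; potency is for inhibitors of fusion seen as a drop in luminescence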
[8] = target: T4, Endoribonuclease toxin MazF (Escherichia coli K-12, UniProt P0AE70); assay: activation of MazEF endoribonuclease cleavage – biochemical, fluorescence, single-stranded RNA substrate, uHTS hits, dose response (AID 588481); assay type: functional
T4 sequence (P0AE70 whole entry): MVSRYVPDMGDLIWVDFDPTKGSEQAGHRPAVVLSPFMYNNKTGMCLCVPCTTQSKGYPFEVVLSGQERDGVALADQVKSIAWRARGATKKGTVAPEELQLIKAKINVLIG

[9] = target: T4, Endoribonuclease toxin MazF; assay: substrate-only fluorescence increase artefacts – biochemical, single-stranded RNase substrate, counter-screen for MazEF activator project, dose response (AID 588502); assay type: functional
[10] = target: T5, Corticotropin-releasing factor receptor 2/Corticotropin-releasing factor-binding protein (Homo sapiens, UniProt P24387+Q13324); assay: activators of CRF receptor 2 with binding protein – uHTS hits, confirmation (AID 602473); assay type: functional; settings: read-out: EC50_Mean
T5 sequence (Q13324 whole entry): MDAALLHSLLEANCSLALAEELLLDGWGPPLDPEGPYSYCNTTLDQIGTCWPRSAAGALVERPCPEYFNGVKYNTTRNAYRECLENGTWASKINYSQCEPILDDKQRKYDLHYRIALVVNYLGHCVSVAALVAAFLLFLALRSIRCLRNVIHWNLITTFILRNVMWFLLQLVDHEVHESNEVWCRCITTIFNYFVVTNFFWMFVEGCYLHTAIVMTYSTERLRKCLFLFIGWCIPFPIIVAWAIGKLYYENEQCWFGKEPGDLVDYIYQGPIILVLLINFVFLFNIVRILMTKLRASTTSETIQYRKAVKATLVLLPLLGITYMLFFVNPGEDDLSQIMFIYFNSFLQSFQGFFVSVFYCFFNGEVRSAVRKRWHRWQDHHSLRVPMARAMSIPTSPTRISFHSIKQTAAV
T5 sequence (P24387 whole entry): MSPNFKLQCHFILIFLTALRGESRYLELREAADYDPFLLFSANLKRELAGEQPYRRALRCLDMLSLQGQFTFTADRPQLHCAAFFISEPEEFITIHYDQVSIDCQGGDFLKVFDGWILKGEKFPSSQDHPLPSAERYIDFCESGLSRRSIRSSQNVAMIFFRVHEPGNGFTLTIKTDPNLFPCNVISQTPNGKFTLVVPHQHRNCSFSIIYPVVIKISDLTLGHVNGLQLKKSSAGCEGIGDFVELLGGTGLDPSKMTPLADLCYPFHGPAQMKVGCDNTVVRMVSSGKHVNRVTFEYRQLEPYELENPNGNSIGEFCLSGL

[11] = target: T6, DNA repair and recombination protein RAD54-like (Homo sapiens, UniProt Q92698); assay: RAD54 Holliday junction migration blockers – biochemical, fluorescence, cherry-picked samples, dose series, confirmation (AID 651657); assay type: functional
T6 sequence (Q92698 whole entry): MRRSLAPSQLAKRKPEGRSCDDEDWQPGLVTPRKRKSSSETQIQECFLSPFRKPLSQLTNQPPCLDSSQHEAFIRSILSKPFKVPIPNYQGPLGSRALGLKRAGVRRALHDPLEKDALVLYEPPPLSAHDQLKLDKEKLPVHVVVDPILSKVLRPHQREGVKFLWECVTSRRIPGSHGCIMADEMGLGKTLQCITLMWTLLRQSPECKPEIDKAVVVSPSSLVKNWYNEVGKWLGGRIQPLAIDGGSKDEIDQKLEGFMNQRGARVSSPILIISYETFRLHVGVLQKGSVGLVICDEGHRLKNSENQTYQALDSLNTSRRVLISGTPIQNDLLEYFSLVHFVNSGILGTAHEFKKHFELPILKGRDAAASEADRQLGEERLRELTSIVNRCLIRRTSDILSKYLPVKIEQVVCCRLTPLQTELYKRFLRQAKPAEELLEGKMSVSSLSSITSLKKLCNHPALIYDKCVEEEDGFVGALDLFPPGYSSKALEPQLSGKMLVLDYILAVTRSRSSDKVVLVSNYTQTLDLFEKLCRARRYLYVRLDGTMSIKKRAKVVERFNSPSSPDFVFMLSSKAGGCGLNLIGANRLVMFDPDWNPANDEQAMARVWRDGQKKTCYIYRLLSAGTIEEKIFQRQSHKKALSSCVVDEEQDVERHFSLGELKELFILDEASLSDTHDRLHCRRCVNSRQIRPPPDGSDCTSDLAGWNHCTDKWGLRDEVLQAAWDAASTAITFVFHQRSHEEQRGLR

[12] = target: Heat shock protein HSP 90-alpha (Homo sapiens, UniProt P07900); assay type: functional, organism-based
[13] = Luminescence Cell-Based Dose Confirmation HTS to Identify Activators of 5'UTR Stem-Loop Driven Alpha-Synuclein mRNA Translation in H4 Neuroglioblastoma Cells. [Related pubchem assays: 1829 (Project Summary), 1814 (Primary HTS)]; assay type: functional
[14] = Luminescence Cell-Based Dose Response HTS to Identify Activators of Luciferase Translation or Activity in H4 […] Cells. [Related pubchem assays: 1829 (Project Summary), 1814 (Primary HTS)]; assay type: functional
H4 = assay: Luminescence Cell-Based Dose Response HTS to Identify Activators of 5'UTR Stem-Loop Driven Prion Protein mRNA Translation in H4 Neuroglioblastoma Cells. [Related pubchem assays: 1829 (Project Summary), 1814 (Primary HTS)]; assay type: functional; settings: Homo sapiens
[15] = THP-1 cell cytotoxicity, dose response, cytotoxicity control for non-replicating M. tuberculosis project (AID 489025); assay type: functional
cells [16] = assay type: functional
H9c2 = assay: cells; assay type: functional, cell-based; settings: Rattus norvegicus, H9c2, Myocardium
[17] = Trypanosoma cruzi growth suppression in host cells – NIH3T3 host cells, beta-gal luminescence, confirmation (AID 2044); assay type: functional, cell-based;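 note: intracellular parasites grown in NIH/3T3 mouse fibroblasts as host cells; luminescent beta-galactosidase reporter signal from transgenic T. cruzi replicating inside host cells; inhibitors lower the luminescence signal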
[18] = NIH3T3 cell viability loss – ATP luminescence, mouse fibroblasts, counter-screen, dose response (AID 2010); assay type: functional, cell-based;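 note: cells exposed to compound for about 90 hours before reading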
cells [19] = assay type: functional, cell-based
cells [20] = assay type: functional, cell-based; remark: listed apart in the source

DNA dC->dU-editing enzyme APOBEC-3G, sequence (Q9HC16 whole entry): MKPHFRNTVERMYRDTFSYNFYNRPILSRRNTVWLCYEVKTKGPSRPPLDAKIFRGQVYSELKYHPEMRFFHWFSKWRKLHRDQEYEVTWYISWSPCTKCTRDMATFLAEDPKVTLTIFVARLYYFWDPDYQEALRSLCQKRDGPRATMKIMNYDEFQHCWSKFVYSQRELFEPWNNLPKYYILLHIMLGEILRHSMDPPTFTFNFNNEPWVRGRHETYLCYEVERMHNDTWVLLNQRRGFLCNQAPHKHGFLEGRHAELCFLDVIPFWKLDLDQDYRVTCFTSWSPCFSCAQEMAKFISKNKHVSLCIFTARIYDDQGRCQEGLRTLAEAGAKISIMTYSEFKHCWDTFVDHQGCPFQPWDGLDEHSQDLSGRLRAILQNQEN

## COc1cc(C(=O)NC2CCN(C)CC2)ccc1Nc1ncc2c(n1)N(CCc1ccccc1)CCC(=O)N2C
[1]
  AC50: 8.71 µM (active)

## COc1ccccc1NS(=O)(=O)c1cc(NC(=O)c2cccs2)ccc1N1CCCC1
[2]
  IC50: 37.1 µM (active)

## C[C@@H](CN1CCC[C@H]1CN1C(N)=NC[C@@H]1Cc1ccccc1)N1C[C@@H](Cc2ccccc2)N(CCCC2CCCC2)C1=N
[3]
  IC50: > 20 µM (inactive)

## CN1CCc2c(sc(N)c2C(=O)O)C1
[1]
  AC50: 11.7 µM (active)

## COC(=O)C1=C(c2ccc(F)cc2OCc2ccccc2)C[C@@H]2CC[C@H]1N2C(=O)NC1CCN(Cc2ccccc2)CC1
[3]
  IC50: > 20 µM (inactive)

## Cc1ccccc1C(=O)NCC(=O)NNC(=S)NC(=O)c1ccccc1
Leucine aminopeptidase
  IC50: 47.4 µM (active)
[3]
  IC50: > 20 µM (inactive)

## C[C@]12CC[C@H](OC(=O)[C@@H](N)CCCCN)C[C@@H]1CC[C@@H]1[C@@H]2CC[C@@]2(C)[C@H]1CC[C@]2(C)O
[1]
  AC50: 1.93 µM (active)

## Cc1ccc(C(=O)N/C(=C/c2ccc(-c3cccc([N+](=O)[O-])c3)o2)C(=O)NCCCN(C)C)cc1
[3]
  IC50: > 20 µM (inactive)

## COC(=O)[C@@]1(C)[C@H]2C(=O)N(Cc3ccccc3)C(=O)[C@H]2[C@H]2CN=C(SCC3CC3)N21
[4]
  AC50: 2.13 µM (active)
[5]
  AC50: 2.3 µM (active)
[6]
  AC50: 2.95 µM (active)
[7]
  AC50: 7.31 µM (active)

## Sc1nc2ccccc2c2nc(-c3cccnc3)nn12
[3]
  IC50: > 20 µM (inactive)

## Cn1cc(Cl)c(C(=O)N/N=C/c2ccc3c4c(cccc24)CC3)n1
[8]
  EC50: > 99 µM (inactive)
[9]
  EC50: > 99 µM (inactive)

## COC(=O)c1c(NC(=O)c2ccco2)sc2c1CCN(C(C)C)C2
[10]
  EC50: > 53 µM (inactive)
[11]
  AC50: 25.4 µM (active)

## CCOC(=O)c1ccc(N2C(=O)CC(N3CCC(C(=O)OCC)CC3)C2=O)cc1 (centres undefined)
[12]
  AC50: 7.24 µM (active)

## CC(C)=CCc1c2c(c3occ(-c4ccc(O)c(O)c4)c(=O)c3c1O)C=CC(C)(C)O2 [POMIFERIN]
[12]
  AC50: 13.3 µM (active)

## CCCCOc1ccc(C2CCC(C(C)=O)C(C)C2)cc1 (centres undefined)
[13]
  EC50: 0.284 µM (active)
[14]
  EC50: 26.8 µM (active)
H4
  EC50: 41.5 µM (active)

## Cc1c(C(=O)Nc2ccc3c(c2)OCO3)sc2nc(-c3ccccc3)cn12
[8]
  EC50: > 99 µM (inactive)
[9]
  EC50: > 99 µM (inactive)

## Nc1nc2ccccc2n1C(=O)c1ccc(F)cc1
[15]
  CC50: > 40 µM (active)
Cells [16]
  IC50: 9.58 µM (active)

## COc1ccc(-c2cc(=O)oc3c(C)c(O)c(CN(C)C)cc23)cc1
H9c2
  IC50: > 79 µM (inactive)
[4]
  AC50: 13 µM (active)
[5]
  AC50: 18.1 µM (active)
[6]
  AC50: 7.97 µM (active)
[7]
  AC50: 17.4 µM (active)

## C=CCn1c(S)nnc1-c1ccc2ncccc2c1
[2]
  IC50: 11.9 µM (active)

## CCOc1ccc2nc(NC(=S)N(C)C)sc2c1
[2]
  IC50: 62.4 µM (active)

## CCC(CC)COC(=O)C(C#N)c1nc2ccccc2nc1N1CCN(CC)CC1 (centres undefined)
[17]
  EC50: 4.05 µM (active)
[18]
  EC50: > 60 µM (not active)
[15]
  CC50: 26.2 µM (active)
Cells [16]
  IC50: 17.9 µM (active)

## O=C(c1ccc2c(c1)ncn2C1CCCCC1)N1CCC2(CC1)OCCO2
[13]
  EC50: > 120 µM (not active)
[14]
  EC50: 6.5 µM (active)
H4
  EC50: > 120 µM (not active)

## Cc1cc2ccc3ccccc3c2cc1CN(C)C
Cells [19]
  EC50: > 350 µM (not active)
Cells [20]
  EC50: > 350 µM (not active)
[11]
  AC50: 38.3 µM (active)

## CC1(C(=O)N/N=C/c2ccc3c(c2)OCO3)CC1(Br)Br (centres undefined)
[4]
  AC50: 5.4 µM (active)
[5]
  AC50: 4.12 µM (active)
[6]
  AC50: 7.57 µM (active)
[7]
  AC50: 7.47 µM (active)

## CN(C)C(CNC(=O)CCCN1C(=O)c2cccc3cccc(c23)C1=O)c1ccccc1 (centres undefined)
[11]
  AC50: 43.4 µM (active)
